Results taken from patent publication US9206124B2, “Treatment of drug-resistant cancer with 2-aryl-2-(3-indolyl) acetohydroxamates” (New Mexico Technical Research Foundation, priority 2013, dated 2015).
“Also recorded” adds a separate entry of the source.

Columns and labels:
[1] = tested on: GBM 031810 neurosphere cells; assay: Antiproliferative effect on patient-derived GBM neurosphere culture; type: cell-based; settings: Homo sapiens, average IC50 ± SD from three determinations, read-out: GI50 in vitro, GBM 031810 (average IC50)
Description: Given the ability of the hydroxamates to overcome drug resistance a few select compounds were further evaluated against glioma cells grown in neurosphere conditions, which are known to promote the growth of stem-like cells from human glioma tissue. Indeed, the neurospheres show the ability of self-renewal by regrowing in culture from individual cells, and can differentiate into multiple neural lineages and recapitulate human gliomas on both histological and genetic levels more faithfully than serum cultured glioma cell lines when injected into the brains of mice. Because, neurosphere cells are generally resistant to radiation and chemotherapy, the micromolar to submicromolar activity of the hydroxamates against the glioma neurosphere cell cultures is noteworthy (Table 4). […] It is worthy of note, that the unmethylated MGMT promoter leading to such temozolomide resistance is found in about half of all GBM patients, who respond poorly to temozolomide chemotherapy. To date, no alternative treatment exists for this group of patients.
Human cancer cell lines were obtained from the American Type Culture Collection (ATCC, Manassas, Va., USA), the European Collection of Cell Culture (ECACC, Salisbury, UK) and the Deutsche Sammlung von Mikroorganismen and Zellkulturen (DSMZ, Braunschweig, Germany). Human cervical adenocarcinoma HeLa cells were cultured in DMEM supplemented with 10% fetal bovine serum (FBS). Human mammary carcinoma MCF-7 cells were cultured in RPMI supplemented with 10% FBS. The U87 cells (ATCC HTB-14) were cultured in DMEM culture medium, while the A549 cells (DSMZ ACC107) were cultured in RPMI culture medium supplemented with 10% heat-inactivated FBS. The glioblastoma multiforme Hs683 (ATCC HTB-138) and the T98G (ATCC CRL-1690) cell lines were cultivated in DMEM supplemented with 10% FBS. The Human uterine sarcoma MES-SA and MES-SA/Dx5 cells were cultured in RPMI-1640 medium supplemented with 10% FBS with MES SA/Dx5 maintained in the presence of 500 nM Doxorubicin (Sigma). SKMEL-28 cells (ATCC HTB72) and U373 glioblastoma cells (ECACC 08061901) were cultured in RPMI culture medium supplemented with 10% heat-inactivated FBS. Cell culture media were supplemented with 4 mM glutamine (Lonza code BE17-605E), 100 μg/mL gentamicin (Lonza code 17-5182), and penicillin-streptomycin (200 units/ml and 200 μg/ml) (Lonza code 17-602E). Neurosphere culture GBM 031810 was established using known methods and maintained in Neurobasal medium (Invitrogen Carlsbad, Calif.) with B27 supplement (20 ul/ml; Invitrogen), Glutamax (10 ul/ml; Invitrogen), fibroblast growth factor-2 (20 ng/ml; Peprotech, Rocky Hill, N.J., USA), epidermal growth factor (20 ng/ml; Peprotech), heparin (32 IE/ml; Sigma Aldrich, St. Louis, Mo.), and penicillin-streptomycin (1×, Invitrogen). […]

[2] = tested on: MES-SA/Dx5 MDR uterine sarcoma cells; assay: MTT antiproliferative assay, MDR MES-SA/Dx5; type: cell-based, human; settings: Homo sapiens, MES-SA/Dx5; 48 h treatment, MTT, ± SD; MDR line; read-out: GI50 in vitro, MES-SA/Dx5
Protocol: (§1) Compared with the intrinsic drug resistance, as described above for such cancers as glioblastoma and melanoma, a large variety of tumors can also develop resistance to anticancer drugs resulting in MDR as explained previously. To assess whether the hydroxamates can overcome this resistance mechanism, selected hydroxamates were tested against MDR cells (Table 4). The MDR uterine sarcoma cell line MES-SA/Dx5 was utilized for this experiment. This cell line was established from the parent uterine sarcoma MES-SA, grown in the presence of increasing concentrations of doxorubicin and known to be resistant to a number of P-gp substrates.
(§2) Human cancer cell lines were obtained from the American Type Culture Collection (ATCC, Manassas, Va., USA), the European Collection of Cell Culture (ECACC, Salisbury, UK) and the Deutsche Sammlung von Mikroorganismen and Zellkulturen (DSMZ, Braunschweig, Germany). Human cervical adenocarcinoma HeLa cells were cultured in DMEM supplemented with 10% fetal bovine serum (FBS). Human mammary carcinoma MCF-7 cells were cultured in RPMI supplemented with 10% FBS. The U87 cells (ATCC HTB-14) were cultured in DMEM culture medium, while the A549 cells (DSMZ ACC107) were cultured in RPMI culture medium supplemented with 10% heat-inactivated FBS. The glioblastoma multiforme Hs683 (ATCC HTB-138) and the T98G (ATCC CRL-1690) cell lines were cultivated in DMEM supplemented with 10% FBS. The Human uterine sarcoma MES-SA and MES-SA/Dx5 cells were cultured in RPMI-1640 medium supplemented with 10% FBS with MES SA/Dx5 maintained in the presence of 500 nM Doxorubicin (Sigma). SKMEL-28 cells (ATCC HTB72) and U373 glioblastoma cells (ECACC 08061901) were cultured in RPMI culture medium supplemented with 10% heat-inactivated FBS. Cell culture media were supplemented with 4 mM glutamine (Lonza code BE17-605E), 100 μg/mL gentamicin (Lonza code 17-5182), and penicillin-streptomycin (200 units/ml and 200 μg/ml) (Lonza code 17-602E). Neurosphere culture GBM 031810 was established using known methods and maintained in Neurobasal medium (Invitrogen Carlsbad, Calif.) with B27 supplement (20 ul/ml; Invitrogen), Glutamax (10 ul/ml; Invitrogen), fibroblast growth factor-2 (20 ng/ml; Peprotech, Rocky Hill, N.J., USA), epidermal growth factor (20 ng/ml; Peprotech), heparin (32 IE/ml; Sigma Aldrich, St. Louis, Mo.), and penicillin-streptomycin (1×, Invitrogen). Growth factors and heparin were renewed twice weekly. All cell lines were cultured in T25 flasks, maintained and grown at 37° C., 95% humidity, 5% CO2.
(§3) Antiproliferative properties of the synthesized compounds were evaluated by the MTT assay. All compounds were dissolved in DMSO at a concentration of either 100 mM or 50 mM prior to cell treatment. The cells were trypsinized and seeded at 4×10^3 cells per well into 96-well plates. The cells were grown for 24 h, treated with compounds at concentrations ranging from 0.001 to 100 μM and incubated for 48 h in 200 μL media. 20 μL of MTT reagent in serum free medium (5 mg/mL) was added to each well and incubated further for 2 h. Media was removed and the resulting formazan crystals were re-solubilized in 200 μL of DMSO. A490 was measured using a Molecular Devices Thermomax plate reader. The experiments were performed in quadruplicate and repeated at least twice for each compound per cell line. Cells treated with 0.1% DMSO were used as a negative control; 1 μM phenyl arsine oxide (PAO) was used as a positive control.
Selection of the MES-SA/Dx5 cell line was done according to W. G. Harker and B. I. Sikic, Cancer Res. 1985, p. 45, 4091. The cells were split and allowed to adhere overnight. […] The cells were maintained at this DOX concentration until their growth rate reached that of the untreated cells.

[3] = tested on: MCF-7 breast adenocarcinoma cells; assay: MTT antiproliferative assay, MCF-7; type: cell-based; settings: Homo sapiens, MCF7, Table 2, 48 h treatment, ± SD, read-out: cell viability GI50, MCF7
Description: (§4) This finding led to an exploration of the SAR analyses by synthesizing the first generation compounds 3 containing diverse substituents at different positions in the 2-aryl-2-(3-indolyl)acetohydroxamate skeleton and testing this series for in vitro growth inhibition using the MTT colorimetric assay against two cell lines, human HeLa cervical and MCF-7 breast adenocarcinomas (Table 1). It emerged from these experiments that the substitution on the benzene ring of the indole moiety (R^2≠H) was not tolerated (e.g., 3abfa and 3acfa), whereas the nitrogen could be derivatized (R^1≠H) with only a small activity drop (e.g., 3bafa vs 3aafa).
as §2, §3

[4] = tested on: HeLa cervical and MCF-7 breast adenocarcinomas; assay: In vitro growth inhibition (MTT); type: cell-based, human; settings: HeLa and MCF-7
Description: as §4, §3

T98G glioblastoma cells = assay: MTT antiproliferative assay, T98G; type: cell-based; settings: Homo sapiens, 48 h treatment, ± SD, read-out: GI50 in vitro, T98G
Protocol: (§5) As part of the ongoing efforts aimed at identification of compounds active against cancer cells displaying resistance to proapoptotic agents, the selected 2-aryl-2-(3-indolyl)-acetohydroxamates were evaluated for in vitro growth inhibition against a panel of additional cancer cell lines including those resistant to various proapoptotic stimuli, such as human T98G and U87 glioblastoma and human A549 non-small-cell-lung cancer (NSCLC), as well as an apoptosis-sensitive tumor model, such as human Hs683 anaplastic oligodendroglioma, used as a reference. The data reveal that for the most part these compounds retain the single-digit antiproliferatve GI50 values in this challenging cancer cell panel.
as §2, §3

U87 glioblastoma cells = assay: MTT antiproliferative assay, U87; type: cell-based, human; settings: for GI50: Homo sapiens, 48 h treatment, MTT, ± SD, read-out: GI50 in vitro, U87
Protocol: as §5, §2, §3

[5] = tested on: Hs683 anaplastic oligodendroglioma cells; assay: MTT antiproliferative assay, Hs683; type: cell-based; settings: Homo sapiens, Hs 683, 48 h treatment, ± SD, apoptosis-sensitive reference, read-out: GI50 in vitro, Hs683
Protocol: as §5, §2, §3

[6] = tested on: HeLa cervical adenocarcinoma cells; assay: MTT antiproliferative assay, HeLa; type: cell-based; settings: Homo sapiens, Table 2, 48 h treatment, ± SD, read-out: cell viability GI50, HeLa
Description: as §4, §2, §3

[7] = tested on: MES-SA uterine sarcoma cells; assay: MTT antiproliferative assay, MES-SA; type: cell-based; settings: Homo sapiens, 48 h treatment, ± SD, read-out: GI50 in vitro, MES-SA
Protocol: as §1, with “substrates. […] In contrast, there was only a small variation in the sensitivities of the two cell lines towards the hydroxamates indicating their potential to overcome clinical multi-drug resistance.” for “substrates.”
as §2, §3

[8] = tested on: A549 non-small-cell-lung cancer cells; assay: MTT antiproliferative assay, A549; type: cell-based, human; settings: for GI50: Homo sapiens, A549, 48 h treatment, MTT, ± SD, read-out: GI50 in vitro, A549
Protocol: as §5, §2, §3

[9] = FIG. 3, increasing concentration

Row | GI50 [2] [nM] | GI50 [3] [nM] | antiproliferative potency (GI50) [4] | GI50 (T98G glioblastoma cells) [µM] | GI50 (U87 glioblastoma cells) [µM] | GI50 [5] [µM] | GI50 [6] [nM] | GI50 [7] [nM] | GI50 [8] [µM] | SMILES | IC50 [1] [µM] | activity against cell populations resistant to proapoptotic agents, U87 (U87 glioblastoma cells; [9]) | activity against cell populations resistant to proapoptotic agents, A549 [8, 9]
1 | 8500 ± 900 | 5500 ± 200 | single-digit micromolar | 10.6 ± 0.4 | 9.1 ± 0.3 | 11.2 ± 0.9 | 5400 ± 300 | 7100 ± 100 | 5.8 ± 0.8 | O=C(NO)C(c1ccccc1)c1c(-c2ccc3ccccc3c2)n(Cc2ccccc2)c2ccccc12 (centres unmarked) [Compound 3eafa] | – | – | –
2 | 2700 ± 300 | 7800 ± 600 | single-digit micromolar | 12.3 ± 0.8 | 6.7 ± 0.3 | 10.8 ± 0.5 | 5600 ± 300 | 5900 ± 1700 | 5.7 ± 0.5 | CCCCn1c(-c2ccc3ccccc3c2)c(C(C(=O)NO)c2ccccc2)c2ccccc21 (centres unmarked) [Compound 3cafa] | – | – | –

The next lines start with the compound.

Row | SMILES | GI50 [2] [nM] | GI50 [3] [nM] | antiproliferative potency (GI50) [4] | GI50 (T98G glioblastoma cells) [µM] | GI50 (U87 glioblastoma cells) [µM] | GI50 [5] [µM] | GI50 [6] [nM] | GI50 [7] [nM] | GI50 [8] [µM] | IC50 [1] [µM] | activity against cell populations resistant to proapoptotic agents, U87 (U87 glioblastoma cells; [9]) | activity against cell populations resistant to proapoptotic agents, A549 [8, 9]
3 | Cn1nnc2c(C(N)=O)ncn2c1=O [Temozolomide, reference compound] | – | – | – | – | – | – | – | – | – | > 1000 | – | –
4 | Cc1ccc(C(C(=O)NO)c2c(-c3ccc4ccccc4c3)[nH]c3ccccc23)cc1C (centres unmarked) [Compound 3aafk] | 2200 ± 800 | 2500 ± 100 | single-digit micromolar | 7.5 ± 0.8 | 6.7 ± 1.5 | 4.7 ± 1 | 2700 ± 100 | 1800 ± 400 | 2.9 ± 0.6 | – | – | –
5 | CC(C)c1ccc(C(C(=O)NO)c2c(-c3ccc4ccccc4c3)[nH]c3ccccc23)cc1 (centres unmarked) [Compound 3aafe] | 4900 ± 1900 | 1400 ± 100 | single-digit micromolar; also recorded: submicromolar | 8.8 ± 0.5 | 5 ± 0.5 | 6.1 ± 1 | 680 ± 40 | 1700 ± 400 | 3.3 ± 0.6 | 3.4 ± 0.7 | – | –
6 | CN(C)c1ccc(C(C(=O)NO)c2c(-c3ccc4ccccc4c3)[nH]c3ccccc23)cc1 (centres unmarked) [Compound 3aafp] | 1600 ± 600 | 1100 | single-digit micromolar; also recorded: submicromolar | 1.9 ± 0.2 | 21.3 ± 1.6 | 5.1 ± 0.5 | 600 ± 20 | 800 ± 100 | 1.5 ± 0.3 | 5.6 ± 0.8 | potent growth inhibitory properties against most of the cells | potent growth inhibitory properties against most of the cells
